Reference: PMC9072010, “Synthesis and bioevaluation of thienopyrimidines bearing a pyrazoline unit as selective PI3Kα inhibitors” (RSC Advances, 2019)

Assays:
[1] = system: A549 cancer cell lines; experiment: MTT antiproliferative assay, A549; assay type: cell-based, human
[2] = system: HepG2 cancer cell lines; experiment: MTT antiproliferative assay, HepG2; assay type: cell-based, human
[3] = system: MCF-7 cancer cell lines; experiment: MTT antiproliferative assay, MCF-7; assay type: cell-based, human
[4] = biological target: mTOR (Homo sapiens, UniProt P42345); experiment: Kinase-Glo Luminescent Kinase Assay, mTOR; assay type: biochemical; settings: average of two separate determinations
[5] = biological target: PI3Kα (Homo sapiens, UniProt P42336); experiment: Kinase-Glo Luminescent Kinase Assay, PI3Kα; assay type: biochemical; settings: average of two separate determinations
Procedure: The experiment was conducted according to the method reported by our research group.[17]

[6] = system: A549 cells; experiment: Annexin V-FITC/PI double staining by flow cytometry; assay type: cell-based, human
[7] = system: A549 cancer cell lines; experiment: Acridine orange (AO) single staining; assay type: cell-based, human; settings: A549, fluorescence microscopy, Fig. 4
Procedure: In order to investigate whether the target compound 13f could induce the apoptosis of A549 cancer cell lines, acridine orange (AO) staining assay was carried out. […] But in the test group (Fig. 4b), the cell shape was abnormal with cell shrinkage, chromatin condensation after compound 13f acted on the A549 cells.
The cancer cell apoptotic of target compound 13f were evaluated with A549 cancer cell lines by acridine orange single staining. The experiment was conducted according to the method reported by our research group.[18]

[8] = Homo sapiens, A549, Table 1, average of two separate determinations
[9] = Homo sapiens, HepG2, Table 1, average of two separate determinations
[10] = Homo sapiens, MCF7, Table 1, average of two separate determinations
[11] = Homo sapiens, HepG2, Table 2, average of two separate determinations
[12] = Homo sapiens, A549, Table 2, average of two separate determinations
[13] = Homo sapiens, MCF7, Table 2, average of two separate determinations
[14] = Table 2, average of two separate determinations

Sequence of PI3Kα (P42336 whole entry): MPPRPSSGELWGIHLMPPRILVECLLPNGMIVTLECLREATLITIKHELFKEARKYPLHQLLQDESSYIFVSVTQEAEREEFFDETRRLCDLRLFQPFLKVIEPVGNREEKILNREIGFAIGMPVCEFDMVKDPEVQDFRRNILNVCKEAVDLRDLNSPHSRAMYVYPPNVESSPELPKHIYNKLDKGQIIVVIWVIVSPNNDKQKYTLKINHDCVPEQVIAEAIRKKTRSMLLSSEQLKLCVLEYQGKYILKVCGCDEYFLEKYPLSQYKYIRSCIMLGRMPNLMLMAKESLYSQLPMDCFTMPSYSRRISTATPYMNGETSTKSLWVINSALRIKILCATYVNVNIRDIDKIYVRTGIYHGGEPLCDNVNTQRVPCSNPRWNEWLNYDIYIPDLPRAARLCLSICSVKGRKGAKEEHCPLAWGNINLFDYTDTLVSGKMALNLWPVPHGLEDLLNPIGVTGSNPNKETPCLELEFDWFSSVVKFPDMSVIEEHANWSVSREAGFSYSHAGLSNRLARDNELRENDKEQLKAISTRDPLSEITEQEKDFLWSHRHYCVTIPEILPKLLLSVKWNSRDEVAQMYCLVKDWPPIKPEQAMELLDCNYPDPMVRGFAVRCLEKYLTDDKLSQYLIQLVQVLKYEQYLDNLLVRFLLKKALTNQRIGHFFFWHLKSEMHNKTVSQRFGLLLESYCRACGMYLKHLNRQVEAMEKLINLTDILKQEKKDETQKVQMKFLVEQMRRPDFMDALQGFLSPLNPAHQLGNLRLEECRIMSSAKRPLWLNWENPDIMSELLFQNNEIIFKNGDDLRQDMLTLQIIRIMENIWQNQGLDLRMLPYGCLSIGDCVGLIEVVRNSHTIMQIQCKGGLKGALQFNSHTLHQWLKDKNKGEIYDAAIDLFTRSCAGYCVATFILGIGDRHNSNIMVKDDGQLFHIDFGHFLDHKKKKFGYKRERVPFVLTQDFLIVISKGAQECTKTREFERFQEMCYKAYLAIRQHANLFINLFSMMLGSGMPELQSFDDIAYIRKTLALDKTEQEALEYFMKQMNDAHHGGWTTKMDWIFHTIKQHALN
Sequence of PI3Kα (P27986 whole entry partner): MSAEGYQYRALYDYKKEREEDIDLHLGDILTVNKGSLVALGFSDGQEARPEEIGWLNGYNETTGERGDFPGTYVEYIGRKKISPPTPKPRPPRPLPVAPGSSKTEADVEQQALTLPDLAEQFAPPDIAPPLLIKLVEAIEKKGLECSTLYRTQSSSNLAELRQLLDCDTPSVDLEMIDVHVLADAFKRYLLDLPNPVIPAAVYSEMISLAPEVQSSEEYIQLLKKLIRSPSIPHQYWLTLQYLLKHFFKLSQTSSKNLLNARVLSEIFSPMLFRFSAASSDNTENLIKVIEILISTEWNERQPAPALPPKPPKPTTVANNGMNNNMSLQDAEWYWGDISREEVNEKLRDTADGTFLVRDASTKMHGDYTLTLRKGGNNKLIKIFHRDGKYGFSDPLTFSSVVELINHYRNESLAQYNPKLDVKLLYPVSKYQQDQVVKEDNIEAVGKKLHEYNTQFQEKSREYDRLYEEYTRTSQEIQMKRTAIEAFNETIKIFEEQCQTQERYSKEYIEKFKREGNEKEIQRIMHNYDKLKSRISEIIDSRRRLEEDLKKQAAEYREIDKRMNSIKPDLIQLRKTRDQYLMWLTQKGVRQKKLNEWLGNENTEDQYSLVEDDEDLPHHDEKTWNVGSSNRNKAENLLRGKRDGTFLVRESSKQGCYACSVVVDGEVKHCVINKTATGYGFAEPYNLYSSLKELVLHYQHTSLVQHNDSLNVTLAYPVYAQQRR

IC50 [1, 8] | IC50 [2, 9] | IC50 [3, 10] | melting point | IC50 [2, 11] | IC50 [1, 12] | IC50 [3, 13] | Compound | further results
 |  |  | 286 to 287 °C | 83.86 ± 0.17 µM |  |  | COc1ccc(C2CC(c3ccc(F)cc3)=NN2c2nc(N(C)CCN(C)C)c3ccsc3n2)cc1 (stereo not drawn) [Compound 13j, N ^1-(2-(3-(4-Fluorophenyl)-5-(4-methoxyphenyl)-4,5-dihydro-1H-pyrazol-1-yl)thieno[2,3-d]pyrimidin-4-yl)-N^1,N^2,N^2-trimethylethane-1,2-diamine] | 
 |  |  | 261 to 262 °C | 15.8 ± 1.23 µM | 22.95 ± 0.15 µM | 17.2 ± 0.48 µM | CN(C)CCN(C)c1nc(N2N=C(c3ccc(Br)cc3)CC2c2ccccc2)nc2sccc12 (stereo not drawn) [Compound 13l, N ^1-(2-(3-(4-Bromophenyl)-5-phenyl-4,5-dihydro-1H-pyrazol-1-yl)thieno[2,3-d]pyrimidin-4-yl)-N^1,N^2,N^2-trimethylethane-1,2-diamine] | 
 |  |  | 291 to 294 °C | 12.9 ± 0.64 µM | 17.43 ± 0.13 µM | 12.8 ± 0.23 µM | CN(C)CCN(C)c1nc(N2N=C(c3ccc(Cl)c(Cl)c3)CC2c2ccc(Br)cc2)nc2sccc12 (stereo not drawn) [Compound 13b, N ^1-(2-(5-(4-Bromophenyl)-3-(3,4-dichlorophenyl)-4,5-dihydro-1H-pyrazol-1-yl)thieno[2,3-d]pyrimidin-4-yl)-N^1,N^2,N^2-trimethylethane-1,2-diamine] | 
 |  |  | 244 to 247 °C | 7.27 ± 0.68 µM | 9.17 ± 0.32 µM | 6.82 ± 0.17 µM | CN(C)CCN(C)c1nc(N2N=C(c3ccc(Cl)c(Cl)c3)CC2c2ccc(F)cc2)nc2sccc12 (stereo not drawn) [Compound 13d, N ^1-(2-(3-(3,4-Dichlorophenyl)-5-(4-fluorophenyl)-4,5-dihydro-1H-pyrazol-1-yl)thieno[2,3-d]pyrimidin-4-yl)-N^1,N^2,N^2-trimethylethane-1,2-diamine] | 
 |  |  | 256 to 257 °C | 6.66 ± 0.13 µM | 9.23 ± 0.02 µM | 6.51 ± 0.31 µM | CN(C)CCN(C)c1nc(N2N=C(c3ccc(F)cc3)CC2c2ccc(F)cc2)nc2sccc12 (stereo not drawn) [Compound 13c, N ^1-(2-(3,5-Bis(4-fluorophenyl)-4,5-dihydro-1H-pyrazol-1-yl)thieno[2,3-d]pyrimidin-4-yl)-N^1,N^2,N^2-tri-methylethane-1,2-diamine] | IC50 [4]: > 10 µM; IC50 [5]: 4.62 ± 0.54 µM
 |  |  | 272 to 273 °C | 4.45 ± 0.25 µM | 5.43 ± 0.17 µM |  | Cc1ccc(C2CC(c3ccc(Br)cc3)=NN2c2nc(N(C)CCN(C)C)c3ccsc3n2)cc1 (stereo not drawn) [Compound 13h, N ^1-(2-(3-(4-Bromophenyl)-5-(p-tolyl)-4,5-dihydro-1H-pyrazol-1-yl)thieno[2,3-d]pyrimidin-4-yl)-N^1,N^2,N^2-trimethylethane-1,2-diamine] | IC50 [4]: > 10 µM; IC50 [5]: 7.16 ± 0.27 µM
 |  |  | 232 to 233 °C |  |  |  | COc1ccc(C2CC(c3ccc(Cl)c(Cl)c3)=NN2c2nc(N(C)CCN(C)C)c3ccsc3n2)cc1 (stereo not drawn) [Compound 13a, N ^1-(2-(3-(3,4-Dichlorophenyl)-5-(4-methoxyphenyl)-4,5-dihydro-1H-pyrazol-1-yl)thieno[2,3-d]pyrimidin-4-yl)-N^1,N^2,N^2-trimethylethane-1,2-diamine] | 
 |  |  | 269 to 270 °C | 6.96 ± 0.44 µM | 8.75 ± 0.24 µM | 4.98 ± 0.04 µM | Cc1ccc(C2CC(c3ccc(Cl)c(Cl)c3)=NN2c2nc(N(C)CCN(C)C)c3ccsc3n2)cc1 (stereo not drawn) [Compound 13g, N ^1-(2-(3-(3,4-Dichlorophenyl)-5-(p-tolyl)-4,5-dihydro-1H-pyrazol-1-yl)thieno[2,3-d]pyrimidin-4-yl)-N^1,N^2,N^2-trimethylethane-1,2-diamine] | IC50 [4]: > 10 µM; IC50 [5]: 3.31 ± 0.12 µM
6.99 ± 0.21 µM | 0.2 ± 0.08 µM | 0.07 ± 0.03 µM |  | 0.07 ± 0.03 µM |  | 0.2 ± 0.08 µM | CS(=O)(=O)N1CCN(Cc2cc3nc(-c4cccc5[nH]ncc45)nc(N4CCOCC4)c3s2)CC1 [GDC-0941, reference compound] | 
 |  |  | 291 to 292 °C | 10.9 ± 0.2 µM | 22.7 ± 0.35 µM | 18.39 ± 0.18 µM | CN(C)CCN(C)c1nc(N2N=C(c3ccc(Br)cc3)CC2c2ccc(F)cc2)nc2sccc12 (stereo not drawn) [Compound 13k, N ^1-(2-(3-(4-Bromophenyl)-5-(4-fluorophenyl)-4,5-dihydro-1H-pyrazol-1-yl)thieno[2,3-d]pyrimidin-4-yl)-N^1,N^2,N^2-trimethylethane-1,2-diamine] | 
 |  |  | 225 to 227 °C | 6.7 ± 0.14 µM | 9.43 ± 0.1 µM | 5.04 ± 0.06 µM | CN(C)CCN(C)c1nc(N2N=C(c3ccccc3)CC2c2ccccc2)nc2sccc12 (stereo not drawn) [Compound 13i, N ^1-(2-(3,5-Diphenyl-4,5-dihydro-1H-pyrazol-1-yl)thieno[2,3-d]pyrimidin-4-yl)-N^1,N^2,N^2-trimethylethane-1,2-diamine] | 
 |  |  |  | 2.08 ± 0.36 µM | 2.84 ± 0.09 µM | 2.88 ± 0.43 µM | COc1ccc(C2CC(c3ccccc3)=NN2c2nc(N(C)CCN(C)C)c3ccsc3n2)cc1 (stereo not drawn) [Compound 13f, N ^1-(2-(5-(4-Methoxyphenyl)-3-phenyl-4,5-dihydro-1H-pyrazol-1-yl)thieno[2,3-d]pyrimidin-4-yl)-N^1,N^2,N^2-trimethylethane-1,2-diamine] | inhibition of proliferation of A549 cancer cell lines (dose and time dependence) ([1]; several concentrations and exposure times, Fig. 3): dose-dependent and time-dependent; IC50 [4]: > 10 µM; IC50 [5]: 0.92 ± 0.14 µM; early apoptotic cells ([6]; A549, 1.6 μM, 24 h): 9.14%; late apoptotic cells ([6]; A549, 1.6 μM, 24 h): 7.68%; induction of apoptosis (Annexin V-FITC/PI) ([6]; A549, 0.2-1.6 μM): induce apoptosis in a concentration-dependent manner; induction of apoptosis (cell morphology, AO staining) [7]: could induce apoptosis

More lines, now with the values behind:

Compound | IC50 [1, 8] | IC50 [2, 9] | IC50 [3, 10] | melting point | IC50 [2, 11] | IC50 [1, 12] | IC50 [3, 13] | further results
Clc1ccc(-c2ccnn2-c2nc(N3CCOCC3)c3ccsc3n2)cc1 [Compound 7d, 4-(2-(5-(4-Chlorophenyl)-1H-pyrazol-1-yl)thieno[2,3-d]pyrimidin-4-yl)morpholine] | > 100 µM | > 100 µM | > 100 µM | 280 to 282 °C |  |  |  | 
c1ccc(-c2ccnn2-c2nc(N3CCOCC3)c3sccc3n2)cc1 [Compound 4a, 4-(2-(5-Phenyl-1H-pyrazol-1-yl)thieno[3,2-d]pyrimidin-4-yl)morpholine] | > 100 µM | > 100 µM | > 100 µM | 243.6 to 244.8 °C |  |  |  | 
Cc1ccc(-c2ccnn2-c2nc(N3CCOCC3)c3ccsc3n2)cc1 [Compound 7b, 4-(2-(5-(p-Tolyl)-1H-pyrazol-1-yl)thieno[2,3-d]pyrimidin-4-yl)morpholine] | 35 ± 0.97 µM | 33.9 ± 1.13 µM | 30.9 ± 1.05 µM | 286 to 289 °C |  |  |  | 
N ^1-(2-(3-(3,4-Dichlorophenyl)-3-phenyl-4,5-dihydro-1H-pyrazol-1-yl)thieno[2,3-d]pyrimidine-4-yl)-N^1, N^2,N^2-trimethylethane-1,2-diamine [Compound 13e] |  |  |  |  |  |  |  | IC50 [1, 14]: 13.4 ± 0.29 µM; IC50 [2, 14]: 8.05 ± 0.05 µM; IC50 [3, 14]: 10.5 ± 0.54 µM
c1ccc(-c2ccnn2-c2nc(N3CCOCC3)c3ccsc3n2)cc1 [Compound 7a, 4-(2-(5-Phenyl-1H-pyrazol-1-yl)thieno[2,3-d]pyrimidin-4-yl)morpholine] | 37.6 ± 1.88 µM | 20.2 ± 1.15 µM | 25.3 ± 0.93 µM | 223 to 225 °C |  |  |  | 
Cc1ccc(-c2ccnn2-c2nc(N3CCOCC3)c3sccc3n2)cc1 [Compound 4b, 4-(2-(5-(p-Tolyl)-1H-pyrazol-1-yl)thieno[3,2-d]pyrimidin-4-yl)morpholine] | > 100 µM | > 100 µM | > 100 µM | 166.8 to 171.5 °C |  |  |  | 
Clc1ccc(-c2ccnn2-c2nc(N3CCOCC3)c3sccc3n2)cc1 [Compound 4d, 4-(2-(5-(4-Chlorophenyl)-1H-pyrazol-1-yl)thieno[3,2-d]pyrimidin-4-yl)morpholine] | > 100 µM | > 100 µM | > 100 µM | 250 to 251 °C |  |  |  | 
Fc1ccc(-c2ccnn2-c2nc(N3CCOCC3)c3sccc3n2)cc1 [Compound 4c, 4-(2-(5-(4-Fluorophenyl)-1H-pyrazol-1-yl)thieno[3,2-d]pyrimidin-4-yl)morpholine] | > 100 µM | > 100 µM | > 100 µM | 228 to 231 °C |  |  |  | 
Fc1ccc(-c2ccnn2-c2nc(N3CCOCC3)c3ccsc3n2)cc1 [Compound 7c, 4-(2-(5-(4-Fluorophenyl)-1H-pyrazol-1-yl)thieno[2,3-d]pyrimidin-4-yl)morpholine] | > 100 µM | > 100 µM | > 100 µM | 202 to 205 °C |  |  |  | 
